Source: PubChem BioAssay (NCI)
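These data come from cells grown in 96-well plates and exposed to compound for 48 hours at five concentrations. Definition used: TGI = concentration required for complete inhibition of growth.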

Assays:
Test in all cases: DTP human tumour cell line panel, 48 h
[1] = test system: MDA-MB-231 breast
[2] = test system: SF-295 CNS
[3] = test system: MDA-N
[4] = test system: MDA-MB-435
[5] = test system: NCI/ADR-RES ovarian
[6] = test system: SNB-75 CNS
[7] = test system: OVCAR-4 ovarian
[8] = test system: A549 NSCLC
[9] = test system: HL-60(TB) leukemia
[10] = test system: SNB-19 CNS
[11] = test system: ACHN renal
[12] = test system: MALME-3M melanoma
[13] = test system: SF-268 CNS
[14] = test system: 786-0 renal
[15] = test system: T-47D breast
[16] = test system: HS 578T breast
[17] = test system: OVCAR-5 ovarian
[18] = test system: CAKI-1 renal
[19] = test system: K-562 leukemia
[20] = test system: BT-549 breast
[21] = test system: SR leukemia
[22] = test system: RPMI-8226 leukemia
[23] = test system: SK-OV-3 ovarian
[24] = test system: DU-145 prostate
[25] = test system: NCI-H23 lung
[26] = test system: SK-MEL-28 melanoma
[27] = test system: SW-620 colon
[28] = test system: KM12 colon
[29] = test system: IGROV1 ovarian
[30] = test system: UACC-257 melanoma
[31] = test system: SK-MEL-5 melanoma
[32] = test system: NCI-H226 lung
[33] = test system: HT29 colon
[34] = test system: SK-MEL-2 melanoma
[35] = test system: UO-31 renal
[36] = test system: HOP-92 NSCLC
[37] = test system: COLO 205 colon
[38] = test system: U251 CNS
[39] = test system: UACC-62 melanoma
[40] = test system: MCF7 breast
[41] = test system: NCI-H460 lung
[42] = test system: LOX IMVI melanoma
[43] = test system: NCI-H522 lung
[44] = test system: HCT-116 colon
[45] = test system: RXF 393 renal
[46] = test system: OVCAR-8 ovarian
[47] = test system: OVCAR-3 ovarian
[48] = test system: PC-3 prostate
[49] = test system: TK-10 renal
[50] = test system: HOP-62 NSCLC
[51] = test system: SN12C renal
[52] = test system: EKVX NSCLC
[53] = test system: HCT-15 colon
[54] = test system: CCRF-CEM leukemia
[55] = test system: M14 melanoma
[56] = test system: SF-539 CNS
[57] = test system: MOLT-4 leukemia
[58] = test system: A498 renal

`CC(=O)O[C@H]1C(=O)[C@@]2(C)[C@H]([C@H](OC(=O)c3ccccc3)[C@@]3(O)C[C@H](O)C(C)=C1C3(C)C)[C@]1(OC(C)=O)CO[C@@H]1C[C@@H]2O` was tested, and the TGI [1] was > 100 µM, the TGI [2] was > 100 µM and the TGI [3] was 17.1 µM. The TGI [4] was 27.5 µM, the TGI [5] was > 100 µM and the TGI [6] was > 100 µM. For the same compound, the TGI [7] was > 100 µM, the TGI [8] was > 100 µM and the TGI [9] was > 100 µM. The TGI [10] was > 100 µM, the TGI [11] was > 100 µM and the TGI [12] was > 100 µM. For the same compound, the TGI [13] was > 100 µM, the TGI [14] was > 100 µM and the TGI [15] was > 100 µM. For the same compound, the TGI [16] was 96.3 µM, the TGI [17] was > 100 µM and the TGI [18] was > 100 µM. The TGI [19] was > 100 µM, the TGI [20] was > 100 µM and the TGI [21] was > 100 µM. The TGI [22] was > 100 µM, the TGI [23] was 69.1 µM and the TGI [24] was > 100 µM. The TGI [25] was > 100 µM, the TGI [26] was > 100 µM and the TGI [27] was > 100 µM. For the same compound, the TGI [28] was > 100 µM, the TGI [29] was > 100 µM and the TGI [30] was > 100 µM. For the same compound, the TGI [31] was > 100 µM, the TGI [32] was > 100 µM and the TGI [33] was 86.6 µM. For the same compound, the TGI [34] was > 100 µM, the TGI [35] was > 100 µM and the TGI [36] was > 100 µM. For the same compound, the TGI [37] was 81.5 µM, the TGI [38] was > 100 µM and the TGI [39] was > 100 µM. The TGI [40] was > 100 µM, the TGI [41] was > 100 µM and the TGI [42] was > 100 µM. The TGI [43] was 44.1 µM, the TGI [44] was > 100 µM and the TGI [45] was > 100 µM. For the same compound, the TGI [46] was > 100 µM, the TGI [47] was > 100 µM and the TGI [48] was > 100 µM. For the same compound, the TGI [49] was > 100 µM, the TGI [50] was > 100 µM and the TGI [51] was > 100 µM. The TGI [52] was > 100 µM, the TGI [53] was > 100 µM and the TGI [54] was > 100 µM. The TGI [55] was 74.8 µM, the TGI [56] was > 100 µM and the TGI [57] was > 100 µM.
`Cn1c(-c2ccc(N=NNc3ccc(-c4n[nH]c(=S)n4C)cc3)cc2)n[nH]c1=S` was tested, and the TGI [1] was 43.4 µM, the TGI [2] was > 100 µM and the TGI [3] was > 100 µM. The TGI [4] was > 100 µM, the TGI [5] was > 100 µM and the TGI [6] was 35.1 µM. The TGI [7] was > 100 µM, the TGI [8] was > 100 µM and the TGI [9] was > 100 µM. For the same compound, the TGI [10] was 70.2 µM, the TGI [11] was 3.93 µM and the TGI [12] was > 100 µM. For the same compound, the TGI [13] was > 100 µM, the TGI [14] was > 100 µM and the TGI [15] was 8.28 µM. The TGI [16] was > 100 µM, the TGI [17] was > 100 µM and the TGI [19] was > 100 µM. For the same compound, the TGI [20] was 12.6 µM, the TGI [21] was > 100 µM and the TGI [23] was 54.9 µM. The TGI [24] was 30.6 µM, the TGI [25] was > 100 µM and the TGI [26] was > 100 µM. For the same compound, the TGI [27] was > 100 µM, the TGI [29] was 46.4 µM and the TGI [30] was > 100 µM. The TGI [31] was 48.1 µM, the TGI [32] was 48.8 µM and the TGI [33] was > 100 µM. For the same compound, the TGI [34] was > 100 µM, the TGI [36] was 8.84 µM and the TGI [37] was > 100 µM. The TGI [58] was > 100 µM, the TGI [38] was 28.9 µM and the TGI [40] was > 100 µM. The TGI [42] was > 100 µM, the TGI [43] was > 100 µM and the TGI [44] was > 100 µM. For the same compound, the TGI [45] was 32.6 µM, the TGI [46] was 23.4 µM and the TGI [47] was > 100 µM. For the same compound, the TGI [48] was > 100 µM, the TGI [49] was > 100 µM and the TGI [50] was 69.4 µM. The TGI [51] was > 100 µM, the TGI [52] was > 100 µM and the TGI [53] was > 100 µM. For the same compound, the TGI [54] was > 100 µM, the TGI [55] was > 100 µM and the TGI [57] was > 100 µM.
